ChEMBL document CHEMBL3132841, “Synthesis and biological evaluation of coumarin1,2,3-triazoledithiocarbamate hybrids as potent LSD1 inhibitors” (Medchemcomm, 2014)
Activity calls are given as the source filed them. No cut-off for these calls is given here.

Assays:
[1] = target: Lysine-specific histone demethylase 1A (Homo sapiens, UniProt O60341)
Description: Inhibition of recombinant human LSD1 expressed in Escherichia coli BL21(DE3) using H3K4me2 as substrate by fluorescence assay

[2] = target: T1, Amine oxidase [flavin-containing] A (Homo sapiens, UniProt P21397)
T1 sequence (P21397 whole entry): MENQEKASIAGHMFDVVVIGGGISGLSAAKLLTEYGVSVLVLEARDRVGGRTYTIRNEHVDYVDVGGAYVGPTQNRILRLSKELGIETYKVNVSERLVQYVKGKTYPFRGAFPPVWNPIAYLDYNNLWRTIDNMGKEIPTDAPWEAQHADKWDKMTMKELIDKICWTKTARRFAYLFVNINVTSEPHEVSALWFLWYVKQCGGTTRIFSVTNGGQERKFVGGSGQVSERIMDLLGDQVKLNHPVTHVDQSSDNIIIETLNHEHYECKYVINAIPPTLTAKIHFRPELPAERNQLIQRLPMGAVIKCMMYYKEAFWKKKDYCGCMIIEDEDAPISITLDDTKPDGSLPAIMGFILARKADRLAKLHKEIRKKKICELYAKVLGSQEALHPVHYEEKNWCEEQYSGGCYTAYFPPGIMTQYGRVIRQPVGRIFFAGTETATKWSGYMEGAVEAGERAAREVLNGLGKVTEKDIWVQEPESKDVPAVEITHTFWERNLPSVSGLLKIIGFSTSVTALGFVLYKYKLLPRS
Description: Inhibition of MAO-A (unknown origin)

[3] = tested on: MGC-803; experiment: Effect on total H3 protein expression in human MGC803 cells at 0.1 to 0.5 uM after 48 hrs by Western blot analysis; type: functional, cell-based
[4] = target: T2, Amine oxidase [flavin-containing] B (Homo sapiens, UniProt P27338)
T2 sequence (P27338 whole entry): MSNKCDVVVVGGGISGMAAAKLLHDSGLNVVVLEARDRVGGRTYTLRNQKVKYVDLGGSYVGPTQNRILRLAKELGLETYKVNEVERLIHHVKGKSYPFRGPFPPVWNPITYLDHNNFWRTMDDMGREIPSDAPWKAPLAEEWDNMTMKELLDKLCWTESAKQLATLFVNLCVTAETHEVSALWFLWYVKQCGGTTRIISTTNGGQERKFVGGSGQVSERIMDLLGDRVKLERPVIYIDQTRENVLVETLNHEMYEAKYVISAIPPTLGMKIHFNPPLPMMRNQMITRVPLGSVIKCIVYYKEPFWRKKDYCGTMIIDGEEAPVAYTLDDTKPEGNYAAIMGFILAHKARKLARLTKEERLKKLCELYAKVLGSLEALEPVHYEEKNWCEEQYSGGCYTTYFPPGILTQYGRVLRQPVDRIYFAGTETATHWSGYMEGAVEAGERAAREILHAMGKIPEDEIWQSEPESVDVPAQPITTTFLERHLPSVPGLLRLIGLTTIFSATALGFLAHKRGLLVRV
Description: Inhibition of MAO-B (unknown origin)

Row | Compound | IC50 [1] | also measured
1 | CC(C)(C)OC(=O)N1CCN(C(=S)SCc2cn(Cc3cc4ccc(O)cc4oc3=O)nn2)CC1 | 103 µM | 
2 | CC(C)(C)OC(=O)N1CCN(C(=S)SCc2cn(Cc3cc(=O)oc4cc(O)ccc34)nn2)CC1 |  | IC50 [2]: > 1250 µM; Activity [3]: inactive; IC50 [4]: > 1250 µM
3 | CC(C)(C)OC(=O)N1CCN(C(=S)SCc2cn(Cc3cc(=O)oc4ccc(Cl)cc34)nn2)CC1 | > 125 µM | 
4 | Cc1cc(O)cc2oc(=O)cc(Cn3cc(CSC(=S)N4CCN(C(=O)OC(C)(C)C)CC4)nn3)c12 | > 125 µM | 
5 | CC(C)(C)OC(=O)N1CCN(C(=S)SCc2cn(Cc3cc4ccccc4oc3=O)nn2)CC1 | > 125 µM | 
6 | Cc1ccc2oc(=O)cc(Cn3cc(CSC(=S)N4CCN(C(=O)OC(C)(C)C)CC4)nn3)c2c1 | > 125 µM | 
